The values that follow come from EPA's ToxValDB 9.5 (doi:10.2903/j.efsa.2014.3742).

Values after ≈ are worked out from the molar mass of the structure shown.

One data set has as its system Folsomia candida. The note with it: chronic/long-term.
The subject of the next data set is Oncorhynchus mykiss. To be noted: for LC50: acute, duration: 96 hours, mortality; for NOEC: chronic/long-term.
Another data set has as its system Tagia sp. The note with it: for LC50: acute.
In a further data set the test system is Daphnia magna. The note with it: chronic/long-term; duration: 21 days.
In the next data set the test system is Apis mellifera. The note with it: acute, mortality.
The subject of a further data set is Oryctolagus sp. The note with it: reproduction developmental; morphology.
The next data set concerns Colinus virginianus. The note with it: acute; oral; mortality.

As to `c1nc[nH]n1` [1H-1,2,4-Triazole], the NOEC with Folsomia candida is 1.8 mg/kg; in the data set on Oncorhynchus mykiss (duration: 28 days, other) it was 3.2 mg/L; in the data set on Tagia sp. (chronic/long-term), at most 1 mg/kg. For the same compound, the LC50 is 498 µg/mL (≈ 7.21 mM) in the data set on Oncorhynchus mykiss and above 1000 mg/kg in the data set on Tagia sp..
Regarding `Nc1ncn[nH]1` [Amitrole], the NOEC was 0.32 mg/L in the data set with Daphnia magna; 100 mg/L with Oncorhynchus mykiss (duration: 21 days); 16 mg/kg-day in the data set with Anas platyrhynchos (reproductive, duration: 15 months, morphology). The LC50 is above 1000 µg/mL with Oncorhynchus mykiss; above 448 mg/kg with Tagia sp. (duration: 14 days, mortality); 5000 mg/kg with Rattus norvegicus (acute, mortality); above 829 mg/kg with Anas platyrhynchos (short-term, duration: 5 days, oral, feed, mortality). For the same compound, the LD50 was above 100 µg/piece in the data set on Apis mellifera (dermal); above 152 µg/piece with Apis mellifera (oral, unspecified); above 2150 mg/kg with Colinus virginianus. The NOAEL is 0.9 mg/kg-day in the data set on Rattus norvegicus (reproduction developmental); 0.12 mg/kg-day in the data set on Rattus norvegicus (reproduction developmental, morphology); 0.1 mg/kg-day with Rattus norvegicus (subchronic, duration: 90 days, oral, histopathology: neoplastic); 3 mg/kg-day in the data set with Oryctolagus sp..

What is called NOAEL is the highest dose or exposure tested at which no adverse effect was seen.
